Legend:
Format in all cases: in vivo, human
[1] = test system: panel of flavorists; assay: Additional sensory testing for lemon-flavored (lemon-lime) beverage, flavorist panel; details: 600 ppm mogrosides, 0 to 10 scale, letter in parentheses = Duncan's test group
Experimental: (§1) A panel of flavorists at three locations evaluated lemon-lime beverage various mogrosides at a concentration of 600 ppm mogrosides for in-mouth attributes (peak sweetness, upfront sweetness, bitterness, and mouthfeel/thickness) and aftertaste attributes (sweet taste linger), on a 0 to 10 scale. The in-mouth attributes were evaluated while holding the sample in the mouth, while the aftertaste attributes were evaluated after expectoration.

[2] = test system: panel of flavorists; assay: Additional sensory testing for vanilla milk, flavorist panel; details: 400 ppm mogrosides, 0 to 10 scale, letter in parentheses = Duncan's test group
Experimental: as §1, with “vanilla milk containing” for “lemon-lime beverage”, “400” for “600”, “expectoration. The data was analyzed using Duncan's new multiple range test and the scores are provided in the data below in parentheses.” for “expectoration.”

[3] = test system: expert panelists; assay: Expert panelists' comparison of mogrosides with stevia; details: 'Examples 4 and 5', in words
[4] = test system: panel of volunteers; assay: Sensory testing for apple drink (panel, in-mouth and aftertaste attributes); parameters: key to Sweetness / Delayed Sweetness / Bitterness / Lingering Sweetness / Overall Off-Taste / Licorice Aftertaste / Bitterness Aftertaste / Mouth Coating: 10-point scale; normalized per attribute to average Reb M scores; details: 10-point scale; for Bitterness / Delayed Sweetness / Global Flavor Intensity / Sweetness / Thickness/Body: in-mouth, average normalized score
Experimental: (§2) A panel of volunteers evaluated siamenoside I for in-mouth attributes (sweetness, delayed sweetness, sourness, bitterness, global flavor intensity, thickness/body, and astringence) and aftertaste (AT) attribtues (lingering sweetness, overall off-taste intensity, licorice off-tast, bitterness off-taste, and mouth coating) on a 10-point scale. Two replicate sessions were conducted, with a 20 minute break between sessions. There was a 90 second delay between samples within a session. Panelists evaluated all samples in a first session and evaluated the samples again a second time in a second session. Control samples of Rebaudioside M (Reb M) were evaluated during all sessions as a control. Mogroside V was also evaluated and sensory data for mogroside V is provided.
(§3) Data analysis was performed using 2-way analysis of variance (ANOVA) with interaction using Tukey's HSD test. The data was normalized for each attribute according to average scores for Reb M.
The average normalized in-mouth attributes for each sample of apple drink containing siamenoside I was evaluated below.
The average sweetness for each sample of apple drink containing siamenoside I was evaluated below.

[5] = test system: panel of volunteers; assay: Sensory testing for lemon-lime carbonated soft drink; parameters: key to Sweetness / Delayed Sweetness / Bitterness / Lingering Sweetness / Overall Off-Taste / Licorice Aftertaste / Bitterness Aftertaste: 10-point scale; scores normalized to average Reb M scores; details: 600 ppm (mogroside V 600 mg [sic]), average normalized score, 10-point scale
Experimental: as §2, §3
A panel of volunteers evaluated the siamenoside I-containing lemon-lime carbonated soft drink for in-mouth attributes and aftertaste attributes according to the methods described in Example 1 above.
The average normalized in-mouth attributes for a sample of lemon-lime carbonated soft drink having […] was evaluated below.
The average normalized aftertaste attributes for a sample of lemon-lime carbonated soft drink having siamenoside I was evaluated below.

[6] = test system: panel of volunteers; assay: Sensory testing for sparkling orange beverage; details: sparkling orange beverage, 250 ppm (mogroside V 250 mg [sic]), average normalized score, 10-point scale
Experimental: as §2, §3
A panel of volunteers evaluated a sparkling orange beverage containing siamenodie I for in-mouth attributes and aftertaste attributes according to the methods described in Example 1 above.
The average normalized in-mouth attributes for a sample of sparkling orange beverage containing siamenoside I was evaluated and the results are provided below.
The average normalized aftertaste attributes for a sample of sparkling orange beverage containing siamenoside I was evaluated and the results are provided below.

[7] = test system: panel of volunteers; assay: Sensory testing for vanilla milk; details: average normalized score, 10-point scale; for Licorice Aftertaste / Lingering Sweetness / Mouth Coating / Overall Off-Taste: aftertaste
Experimental: as §2, §3
A panel of volunteers evaluated vanilla milk for in-mouth attributes and aftertaste attributes according to the methods described in Example 1 above.
The average normalized in-mouth attributes for each sample of vanilla milk was evaluated and the results are provided below.
The average normalized aftertaste attributes for each sample of vanilla milk containing siamenoside I was evaluated and the results are provided below.

[8] = aftertaste, after expectoration
[9] = 250 ppm (mogroside V 250 mg [sic]), aftertaste
[10] = 250 ppm (mogroside V 250 mg [sic])
[11] = 500 ppm (mogroside V 500 mg [sic]), aftertaste
[12] = 500 ppm (mogroside V 500 mg [sic])
[13] = 200 ppm (mogroside V 200 mg [sic])
[14] = 200 ppm (mogroside V 200 mg [sic]), in-mouth
[15] = 400 ppm (mogroside V 400 mg [sic])
[16] = 400 ppm (mogroside V 400 mg [sic]), in-mouth

## C[C@H](CC[C@@H](O[C@@H]1O[C@H](CO[C@@H]2O[C@H](CO)[C@@H](O)[C@H](O)[C@H]2O)[C@@H](O)[C@H](O)[C@H]1O[C@@H]1O[C@H](CO)[C@@H](O)[C@H](O)[C@H]1O)C(C)(C)O)[C@H]1CC[C@@]2(C)[C@@H]3CC=C4[C@@H](CC[C@H](O[C@@H]5O[C@H](CO)[C@@H](O[C@@H]6O[C@H](CO)[C@@H](O)[C@H](O)[C@H]6O)[C@H](O)[C@H]5O)C4(C)C)[C@]3(C)[C@H](O)C[C@]12C [Isomogroside V]
[1]; [8]
  Sweet Linger: 4.857 (ab)
[1]; in-mouth
  Bitterness: 2.286 (a)
  Mouthfeel/Thickness: 2.571 (b)
  Peak Sweetness: 5.571 (bc)
  Upfront Sweetness: 4.000 (b)
[2]; [8]
  Sweet Linger: 4.625 (b)
[2]; in-mouth
  Bitterness: 0.875 (b)
  Mouthfeel/Thickness: 4.875 (ab)
  Peak Sweetness: 6.188 (b)
  Upfront Sweetness: 5.125 (b)
[3]
  bitter aftertaste compared with stevia: lower bitter aftertaste
  licorice aftertaste compared with stevia: lower licorice aftertaste
  mouthfeel compared with stevia: better mouthfeel

## C[C@H](CC[C@@H](O[C@@H]1O[C@H](CO[C@@H]2O[C@H](CO)[C@@H](O)[C@H](O)[C@H]2O)[C@@H](O)[C@H](O)[C@H]1O[C@@H]1O[C@H](CO)[C@@H](O)[C@H](O)[C@H]1O)C(C)(C)O)[C@H]1CC[C@@]2(C)[C@@H]3CC=C4[C@@H](CC[C@H](O[C@@H]5O[C@H](CO[C@@H]6O[C@H](CO)[C@@H](O)[C@H](O)[C@H]6O)[C@@H](O)[C@H](O)[C@H]5O)C4(C)C)[C@]3(C)[C@H](O)C[C@]12C [mogroside V]
[4]; [9]
  Bitterness Aftertaste: 1.3
  Licorice Aftertaste: 2.3
  Lingering Sweetness: 2.5
  Overall Off-Taste: 3.4
[4]; [10]
  Bitterness: 1.6
  Delayed Sweetness: 2.5
  Global Flavor Intensity: 3.0
  Sweetness: 3.4
  Thickness/Body: 1.3
[4]; [11]
  Licorice Aftertaste: 2.0
  Lingering Sweetness: 3.8
  Mouth Coating: 2.1
  Overall Off-Taste: 2.9
[4]; [12]
  Bitterness: 1.3
  Delayed Sweetness: 3.1
  Global Flavor Intensity: 4.1
  Sweetness: 5.2
  Thickness/Body: 1.6
[5]; aftertaste
  Bitterness Aftertaste: 1.6
  Licorice Aftertaste: 2.3
  Lingering Sweetness: 3.6
  Overall Off-Taste: 3.7
[5]; in-mouth
  Bitterness: 2.0
  Delayed Sweetness: 3.4
  Global Flavor Intensity: 3.9
  Sweetness: 5.0
[6]; aftertaste
  Licorice Aftertaste: 2.2
  Lingering Sweetness: 3.6
  Mouth Coating: 2.8
  Overall Off-Taste: 2.9
[6]; in-mouth
  Delayed Sweetness: 4.2
  Sweetness: 5.1
[7]; [13]
  Licorice Aftertaste: 0.8
  Lingering Sweetness: 2.5
  Mouth Coating: 2.9
  Overall Off-Taste: 1.6
[7]; [14]
  Astringence: 0.5
  Delayed Sweetness: 1.9
  Fattiness: 3.2
  Sourness: 1.0
  Sweetness: 5.0
[7]; [15]
  Licorice Aftertaste: 1.1
  Lingering Sweetness: 3.5
  Mouth Coating: 0.9
  Overall Off-Taste: 2.2
[7]; [16]
  Astringence: 0.3
  Bitterness: 1.2
  Delayed Sweetness: 2.0
  Fattiness: 3.5
  Global Flavor Intensity: 4.2
  Sourness: 0.9
  Sweetness: 6.3
